Assay results reported in ChEMBL document CHEMBL3885861, “Open TG-GATES”.

Species on record: Rattus norvegicus
Assay: Open TG-GATES - Regimen: Single
Format: toxicity, organism-based, Sprague-Dawley
Set-up: regimen Single, gender Male, age 6 weeks
Details: in vivo, po, 75 mg/kg, route gavage, dose level High; for APTT / Bas / Eos / Fbg / Hb / Ht / Lym / MCH / MCHC / MCV / Mono / Neu / PT / Plat / RBC / Ret / WBC: tissue Blood; for KIDNEY_L / KIDNEY_R / KIDNEY_TOTAL: tissue Kidney; for LIVER: tissue Liver; for A/G / ALP / ALT / AST / BUN / CRE / Ca / Cl / DBIL / GLC / IP / K / LDH / Na / PL / RALB / TBIL / TC / TG / TP / gamma-GTP: tissue Plasma

With `NC1=NC(=O)C(c2ccccc2)O1` (configuration not stated) [PEMOLINE] the TERMINAL_BW (3 h) was 208.2 g, the APTT (3 h) was 16.9 s and the Bas (3 h) was 0%. It also gave an Eos (3 h) of 0.8%, a Fbg (3 h) of 306.8 mg/dL and a Hb (3 h) of 13.3 g/dL. It also gave a Ht (3 h) of 39.3%, a Lym (3 h) of 74.8% and an MCH (3 h) of 21.9 pg. It also gave an MCHC (3 h) of 33.9%, an MCV (3 h) of 64.8 fL and a Mono (3 h) of 2.6%. It also gave a Neu (3 h) of 20.8%, a PT (3 h) of 13.3 s and a Plat (3 h) of 129.3 x10_4/uL. It also gave an RBC (3 h) of 606.8 x10_4/ul, a Ret (3 h) of 9.4% and a WBC (3 h) of 99.2 x10_2/uL. It also gave a KIDNEY_L (3 h) of 0.9 g, a KIDNEY_R (3 h) of 0.9 g and a KIDNEY_TOTAL (3 h) of 1.7 g. It also gave an LIVER (3 h) of 8.9 g, an A/G (3 h) of 1 and an ALP (3 h) of 1509.8 IU/L. The ALT (3 h) was 46.4 IU/L, the AST (3 h) was 87.6 IU/L and the BUN (3 h) was 7.8 mg/dL. For the same compound, the CRE (3 h) was 0.2 mg/dL, the Ca (3 h) was 10.4 mg/dL and the Cl (3 h) was 108.2 meq/L. It also gave a DBIL (3 h) of 0.012 mg/dL, a GLC (3 h) of 188.6 mg/dL and an IP (3 h) of 8.2 mg/dL. For the same compound, the K (3 h) was 3.7 meq/L, the LDH (3 h) was 74.6 IU/L and the Na (3 h) was 141.6 meq/L. The PL (3 h) was 132.8 mg/dL, the RALB (3 h) was 2.8 g/dL and the TBIL (3 h) was 0.042 mg/dL. The TC (3 h) was 80 mg/dL, the TG (3 h) was 36.8 mg/dL and the TP (3 h) was 5.5 g/dL. It also gave a gamma-GTP (3 h) of 1.8 IU/L, a TERMINAL_BW (6 h) of 208.1 g and an APTT (6 h) of 17.1 s. The Bas (6 h) was 0%, the Eos (6 h) was 1% and the Fbg (6 h) was 280.8 mg/dL. It also gave a Hb (6 h) of 13.6 g/dL, a Ht (6 h) of 40.2% and a Lym (6 h) of 75.2%. For the same compound, the MCH (6 h) was 22 pg, the MCHC (6 h) was 33.9% and the MCV (6 h) was 64.9 fL. It also gave a Mono (6 h) of 3%, a Neu (6 h) of 20% and a PT (6 h) of 13.6 s. For the same compound, the Plat (6 h) was 118.6 x10_4/uL, the RBC (6 h) was 620.2 x10_4/ul and the Ret (6 h) was 9.3%. The WBC (6 h) was 89.6 x10_2/uL, the KIDNEY_L (6 h) was 0.9 g and the KIDNEY_R (6 h) was 0.9 g. The KIDNEY_TOTAL (6 h) was 1.8 g, the LIVER (6 h) was 7.6 g and the A/G (6 h) was 1. It also gave an ALP (6 h) of 1507.8 IU/L, an ALT (6 h) of 40.6 IU/L and an AST (6 h) of 104.8 IU/L. It also gave a BUN (6 h) of 9 mg/dL, a CRE (6 h) of 0.2 mg/dL and a Ca (6 h) of 10.3 mg/dL. It also gave a Cl (6 h) of 108.4 meq/L, a DBIL (6 h) of 0.01 mg/dL and a GLC (6 h) of 168.8 mg/dL. The IP (6 h) was 9.3 mg/dL, the K (6 h) was 3.7 meq/L and the LDH (6 h) was 110.8 IU/L. For the same compound, the Na (6 h) was 140.8 meq/L, the PL (6 h) was 119 mg/dL and the RALB (6 h) was 2.7 g/dL. It also gave a TBIL (6 h) of 0.05 mg/dL, a TC (6 h) of 77.4 mg/dL and a TG (6 h) of 14 mg/dL. The TP (6 h) was 5.4 g/dL, the gamma-GTP (6 h) was 1 IU/L and the TERMINAL_BW (9 h) was 209.6 g. For the same compound, the APTT (9 h) was 17.2 s, the Bas (9 h) was 0% and the Eos (9 h) was 0.6%. It also gave a Fbg (9 h) of 330.2 mg/dL, a Hb (9 h) of 13.7 g/dL and a Ht (9 h) of 40.1%. It also gave a Lym (9 h) of 71.6%, an MCH (9 h) of 22.2 pg and an MCHC (9 h) of 34.2%. It also gave an MCV (9 h) of 65 fL, a Mono (9 h) of 2.2% and a Neu (9 h) of 25%. For the same compound, the PT (9 h) was 13.1 s, the Plat (9 h) was 113 x10_4/uL and the RBC (9 h) was 617.8 x10_4/ul. The Ret (9 h) was 9.2%, the WBC (9 h) was 80.9 x10_2/uL and the KIDNEY_L (9 h) was 0.9 g. The KIDNEY_R (9 h) was 0.9 g, the KIDNEY_TOTAL (9 h) was 1.8 g and the LIVER (9 h) was 7.3 g. It also gave an A/G (9 h) of 1, an ALP (9 h) of 1405.6 IU/L and an ALT (9 h) of 34.4 IU/L. For the same compound, the AST (9 h) was 89 IU/L, the BUN (9 h) was 9 mg/dL and the CRE (9 h) was 0.2 mg/dL. For the same compound, the Ca (9 h) was 10.3 mg/dL, the Cl (9 h) was 107.8 meq/L and the DBIL (9 h) was 0.01 mg/dL. It also gave a GLC (9 h) of 190.4 mg/dL, an IP (9 h) of 10.4 mg/dL and a K (9 h) of 3.5 meq/L. The LDH (9 h) was 82 IU/L, the Na (9 h) was 141.2 meq/L and the PL (9 h) was 122.2 mg/dL. The RALB (9 h) was 2.9 g/dL, the TBIL (9 h) was 0.044 mg/dL and the TC (9 h) was 75.6 mg/dL. The TG (9 h) was 9.4 mg/dL, the TP (9 h) was 5.7 g/dL and the gamma-GTP (9 h) was 1.2 IU/L. It also gave a TERMINAL_BW (24 h) of 200.9 g, an APTT (24 h) of 15.7 s and a Bas (24 h) of 0%. For the same compound, the Eos (24 h) was 1%, the Fbg (24 h) was 324.8 mg/dL and the Hb (24 h) was 13.3 g/dL. The Ht (24 h) was 38.1%, the Lym (24 h) was 78.8% and the MCH (24 h) was 21.9 pg. The MCHC (24 h) was 34.8%, the MCV (24 h) was 62.9 fL and the Mono (24 h) was 2.2%. The Neu (24 h) was 17.6%, the PT (24 h) was 13.1 s and the Plat (24 h) was 112.1 x10_4/uL. The RBC (24 h) was 606.6 x10_4/ul, the Ret (24 h) was 8.5% and the WBC (24 h) was 84.2 x10_2/uL. It also gave a KIDNEY_L (24 h) of 0.9 g, a KIDNEY_R (24 h) of 0.9 g and a KIDNEY_TOTAL (24 h) of 1.9 g. The LIVER (24 h) was 8.6 g, the A/G (24 h) was 1 and the ALP (24 h) was 1471 IU/L. The ALT (24 h) was 40.8 IU/L, the AST (24 h) was 92.6 IU/L and the BUN (24 h) was 14 mg/dL. The CRE (24 h) was 0.2 mg/dL, the Ca (24 h) was 10.6 mg/dL and the Cl (24 h) was 104.8 meq/L. The DBIL (24 h) was 0.014 mg/dL, the GLC (24 h) was 177.6 mg/dL and the IP (24 h) was 8.6 mg/dL. For the same compound, the K (24 h) was 4.1 meq/L, the LDH (24 h) was 66.2 IU/L and the Na (24 h) was 141.4 meq/L. The PL (24 h) was 127.6 mg/dL, the RALB (24 h) was 2.7 g/dL and the TBIL (24 h) was 0.038 mg/dL. The TC (24 h) was 80.4 mg/dL, the TG (24 h) was 38.2 mg/dL and the TP (24 h) was 5.4 g/dL. The gamma-GTP (24 h) was 1 IU/L.
